Reference: ChEMBL document CHEMBL4507258 (2021)

Assays:
[1] = biological target: Activin receptor type-1B (Homo sapiens) (UniProt P36896); conditions: Compound concentration 1000.0 nM
[2] = biological target: Activin receptor type-2A (Homo sapiens) (UniProt P27037); conditions: Compound concentration 1000.0 nM
[3] = biological target: Calcium/calmodulin-dependent protein kinase kinase 1 (Homo sapiens) (UniProt Q8N5S9); conditions: Compound concentration 1000.0 nM
[4] = biological target: Cyclin-dependent kinase 11B (Homo sapiens) (UniProt P21127); conditions: Compound concentration 1000.0 nM
[5] = biological target: Cyclin-dependent kinase 3 (Homo sapiens) (UniProt Q00526); conditions: Compound concentration 1000.0 nM
[6] = biological target: Serine/threonine-protein kinase Chk2 (Homo sapiens) (UniProt O96017); conditions: Compound concentration 1000.0 nM
[7] = biological target: Citron Rho-interacting kinase (Homo sapiens) (UniProt O14578); conditions: Compound concentration 1000.0 nM
Chain of Citron Rho-interacting kinase (Homo sapiens) (O14578 whole entry, canonical isoform): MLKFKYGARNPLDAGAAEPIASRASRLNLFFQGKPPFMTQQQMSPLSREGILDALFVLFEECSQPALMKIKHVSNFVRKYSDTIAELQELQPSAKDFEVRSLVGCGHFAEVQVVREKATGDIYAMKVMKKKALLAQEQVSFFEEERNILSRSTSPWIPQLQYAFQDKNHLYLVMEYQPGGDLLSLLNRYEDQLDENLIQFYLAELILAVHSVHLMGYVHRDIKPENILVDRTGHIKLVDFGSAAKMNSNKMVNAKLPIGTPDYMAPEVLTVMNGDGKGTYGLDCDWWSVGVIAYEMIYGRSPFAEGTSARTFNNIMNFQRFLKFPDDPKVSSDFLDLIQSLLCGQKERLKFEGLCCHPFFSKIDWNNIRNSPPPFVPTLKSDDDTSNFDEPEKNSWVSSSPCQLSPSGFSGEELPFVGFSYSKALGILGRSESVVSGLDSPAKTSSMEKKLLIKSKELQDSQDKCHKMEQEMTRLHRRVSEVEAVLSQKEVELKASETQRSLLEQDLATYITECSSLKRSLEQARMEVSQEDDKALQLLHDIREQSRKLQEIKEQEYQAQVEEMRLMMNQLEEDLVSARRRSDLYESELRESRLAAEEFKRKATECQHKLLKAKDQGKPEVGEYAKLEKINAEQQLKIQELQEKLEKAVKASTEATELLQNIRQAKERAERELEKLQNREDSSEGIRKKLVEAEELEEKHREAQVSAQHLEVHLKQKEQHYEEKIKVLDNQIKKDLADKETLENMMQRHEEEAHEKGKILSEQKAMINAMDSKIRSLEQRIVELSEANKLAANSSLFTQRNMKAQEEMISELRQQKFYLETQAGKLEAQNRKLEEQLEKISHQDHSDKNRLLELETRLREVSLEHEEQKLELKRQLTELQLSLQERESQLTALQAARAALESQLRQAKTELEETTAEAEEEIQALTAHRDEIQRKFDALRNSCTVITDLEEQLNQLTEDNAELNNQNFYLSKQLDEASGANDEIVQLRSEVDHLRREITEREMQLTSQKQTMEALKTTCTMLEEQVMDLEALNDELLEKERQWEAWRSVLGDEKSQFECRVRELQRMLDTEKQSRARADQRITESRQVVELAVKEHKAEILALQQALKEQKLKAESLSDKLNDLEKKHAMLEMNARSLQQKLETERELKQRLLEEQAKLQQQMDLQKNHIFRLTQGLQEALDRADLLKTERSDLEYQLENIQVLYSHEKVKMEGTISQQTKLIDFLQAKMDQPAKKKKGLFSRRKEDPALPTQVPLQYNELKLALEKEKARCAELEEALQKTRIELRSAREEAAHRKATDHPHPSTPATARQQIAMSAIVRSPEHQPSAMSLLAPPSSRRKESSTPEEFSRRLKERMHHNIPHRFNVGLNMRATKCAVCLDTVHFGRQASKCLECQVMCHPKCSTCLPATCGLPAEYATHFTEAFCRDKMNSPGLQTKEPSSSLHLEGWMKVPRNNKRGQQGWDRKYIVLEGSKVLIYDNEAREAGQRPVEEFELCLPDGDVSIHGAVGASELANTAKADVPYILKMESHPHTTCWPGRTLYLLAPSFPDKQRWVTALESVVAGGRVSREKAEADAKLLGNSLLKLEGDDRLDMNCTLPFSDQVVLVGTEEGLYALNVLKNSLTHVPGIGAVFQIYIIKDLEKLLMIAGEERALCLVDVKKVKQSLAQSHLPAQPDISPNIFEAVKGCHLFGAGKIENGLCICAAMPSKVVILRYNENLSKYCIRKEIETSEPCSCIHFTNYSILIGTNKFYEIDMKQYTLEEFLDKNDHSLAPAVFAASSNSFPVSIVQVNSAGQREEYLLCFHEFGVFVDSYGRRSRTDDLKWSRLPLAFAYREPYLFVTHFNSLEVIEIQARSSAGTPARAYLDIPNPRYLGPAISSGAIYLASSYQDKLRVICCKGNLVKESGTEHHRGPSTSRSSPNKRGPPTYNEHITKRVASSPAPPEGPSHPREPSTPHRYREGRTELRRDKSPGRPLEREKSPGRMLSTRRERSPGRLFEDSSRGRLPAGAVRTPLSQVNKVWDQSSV

[8] = biological target: Casein kinase I isoform alpha (Homo sapiens) (UniProt P48729); conditions: Compound concentration 1000.0 nM
[9] = biological target: Casein kinase I isoform epsilon (Homo sapiens) (UniProt P49674); conditions: Compound concentration 1000.0 nM
[10] = biological target: Discoidin domain-containing receptor 2 (Homo sapiens) (UniProt Q16832); conditions: Compound concentration 1000.0 nM
[11] = biological target: Serine/threonine-protein kinase MRCK gamma (Homo sapiens) (UniProt Q6DT37); conditions: Compound concentration 1000.0 nM
[12] = biological target: Dual specificity tyrosine-phosphorylation-regulated kinase 1A (Homo sapiens) (UniProt Q13627); conditions: Compound concentration 1000.0 nM
[13] = biological target: Ephrin type-A receptor 3 (Homo sapiens) (UniProt P29320); conditions: Compound concentration 1000.0 nM
[14] = biological target: Fibroblast growth factor receptor 2 (Homo sapiens) (UniProt P21802); conditions: Compound concentration 1000.0 nM
[15] = biological target: Tyrosine-protein kinase Fgr (Homo sapiens) (UniProt P09769); conditions: Compound concentration 1000.0 nM
[16] = biological target: Vascular endothelial growth factor receptor 1 (Homo sapiens) (UniProt P17948); conditions: Compound concentration 1000.0 nM
Chain of Vascular endothelial growth factor receptor 1 (Homo sapiens) (P17948 whole entry): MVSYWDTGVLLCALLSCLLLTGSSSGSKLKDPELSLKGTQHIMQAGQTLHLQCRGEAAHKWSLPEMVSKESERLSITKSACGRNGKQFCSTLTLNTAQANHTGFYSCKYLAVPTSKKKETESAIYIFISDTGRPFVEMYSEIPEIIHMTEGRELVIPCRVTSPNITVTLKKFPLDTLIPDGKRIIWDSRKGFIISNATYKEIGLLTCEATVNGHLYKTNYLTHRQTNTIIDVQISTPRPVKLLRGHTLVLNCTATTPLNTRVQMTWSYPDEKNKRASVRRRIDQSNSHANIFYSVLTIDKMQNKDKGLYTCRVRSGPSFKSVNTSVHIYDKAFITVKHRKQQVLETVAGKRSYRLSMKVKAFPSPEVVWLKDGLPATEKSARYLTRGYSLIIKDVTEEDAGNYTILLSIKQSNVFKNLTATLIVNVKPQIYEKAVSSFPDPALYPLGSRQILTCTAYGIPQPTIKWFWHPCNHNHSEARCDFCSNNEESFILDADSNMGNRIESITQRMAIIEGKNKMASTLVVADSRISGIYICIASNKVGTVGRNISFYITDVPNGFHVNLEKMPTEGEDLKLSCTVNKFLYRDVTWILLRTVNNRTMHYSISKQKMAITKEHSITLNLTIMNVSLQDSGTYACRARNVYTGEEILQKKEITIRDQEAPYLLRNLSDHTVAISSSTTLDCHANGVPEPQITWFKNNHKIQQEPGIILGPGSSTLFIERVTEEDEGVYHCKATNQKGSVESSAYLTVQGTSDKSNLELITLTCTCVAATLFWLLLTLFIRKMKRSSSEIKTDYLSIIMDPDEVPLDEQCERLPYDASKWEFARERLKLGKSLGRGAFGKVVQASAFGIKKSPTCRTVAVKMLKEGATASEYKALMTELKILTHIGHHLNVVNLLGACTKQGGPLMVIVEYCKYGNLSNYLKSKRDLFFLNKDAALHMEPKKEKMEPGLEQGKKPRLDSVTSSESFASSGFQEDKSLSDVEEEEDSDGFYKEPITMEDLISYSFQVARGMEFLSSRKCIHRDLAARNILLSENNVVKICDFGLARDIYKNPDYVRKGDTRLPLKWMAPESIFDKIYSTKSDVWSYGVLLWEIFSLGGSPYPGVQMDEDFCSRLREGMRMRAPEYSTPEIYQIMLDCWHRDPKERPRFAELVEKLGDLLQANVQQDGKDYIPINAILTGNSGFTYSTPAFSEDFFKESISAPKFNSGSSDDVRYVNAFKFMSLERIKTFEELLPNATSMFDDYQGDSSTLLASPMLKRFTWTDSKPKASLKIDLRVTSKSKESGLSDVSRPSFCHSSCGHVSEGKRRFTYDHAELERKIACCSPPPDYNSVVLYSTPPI

[17] = tested on: Mast/stem cell growth factor receptor Kit (Homo sapiens), P10721 [V559D,V654A]; conditions: Compound concentration 1000.0 nM
[18] = biological target: Macrophage-stimulating protein receptor (Homo sapiens) (UniProt Q04912); conditions: Compound concentration 1000.0 nM
[19] = biological target: Myosin light chain kinase family member 4 (Homo sapiens) (UniProt Q86YV6); conditions: Compound concentration 1000.0 nM
[20] = biological target: Serine/threonine-protein kinase Nek10 (Homo sapiens) (UniProt Q6ZWH5); conditions: Compound concentration 1000.0 nM
[21] = biological target: Platelet-derived growth factor receptor beta (Homo sapiens) (UniProt P09619); conditions: Compound concentration 1000.0 nM
[22] = biological target: Cyclin-dependent kinase 2 homolog (Plasmodium falciparum (isolate 3D7)) (UniProt P61075); conditions: Compound concentration 1000.0 nM
[23] = biological target: Phosphatidylinositol 3-kinase C2 domain-containing subunit gamma (Homo sapiens) (UniProt O75747); conditions: Compound concentration 1000.0 nM
[24] = biological target: Serine/threonine-protein kinase pim-3 (Homo sapiens) (UniProt Q86V86); conditions: Compound concentration 1000.0 nM
[25] = biological target: Serine/threonine-protein kinase PLK4 (Homo sapiens) (UniProt O00444); conditions: Compound concentration 1000.0 nM
[26] = biological target: Protein kinase C eta type (Homo sapiens) (UniProt P24723); conditions: Compound concentration 1000.0 nM
[27] = biological target: Serine/threonine-protein kinase D1 (Homo sapiens) (UniProt Q15139); conditions: Compound concentration 1000.0 nM
Chain of Serine/threonine-protein kinase D1 (Homo sapiens) (Q15139 whole entry): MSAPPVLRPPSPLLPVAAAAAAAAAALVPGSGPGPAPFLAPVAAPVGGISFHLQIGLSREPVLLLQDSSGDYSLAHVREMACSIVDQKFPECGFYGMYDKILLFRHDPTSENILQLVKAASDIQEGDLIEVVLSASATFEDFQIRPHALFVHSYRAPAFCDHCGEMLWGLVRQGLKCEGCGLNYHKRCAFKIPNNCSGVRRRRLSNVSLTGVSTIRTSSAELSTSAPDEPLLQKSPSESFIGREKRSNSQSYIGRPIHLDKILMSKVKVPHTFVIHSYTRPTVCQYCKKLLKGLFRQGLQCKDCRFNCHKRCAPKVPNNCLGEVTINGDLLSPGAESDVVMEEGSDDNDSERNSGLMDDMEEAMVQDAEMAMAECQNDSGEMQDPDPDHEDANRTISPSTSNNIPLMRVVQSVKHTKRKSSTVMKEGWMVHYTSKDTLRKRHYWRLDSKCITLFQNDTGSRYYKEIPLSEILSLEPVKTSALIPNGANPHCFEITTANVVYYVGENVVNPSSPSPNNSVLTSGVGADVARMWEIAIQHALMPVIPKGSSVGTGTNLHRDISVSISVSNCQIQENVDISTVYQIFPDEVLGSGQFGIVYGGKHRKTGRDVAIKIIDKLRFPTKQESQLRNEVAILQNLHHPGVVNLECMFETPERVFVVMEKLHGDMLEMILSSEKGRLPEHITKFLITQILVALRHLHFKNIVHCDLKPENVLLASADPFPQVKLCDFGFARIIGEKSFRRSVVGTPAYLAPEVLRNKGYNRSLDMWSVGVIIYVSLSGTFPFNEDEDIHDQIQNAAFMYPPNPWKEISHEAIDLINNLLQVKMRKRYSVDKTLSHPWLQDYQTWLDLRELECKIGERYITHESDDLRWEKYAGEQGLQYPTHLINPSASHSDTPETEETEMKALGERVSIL

[28] = biological target: cGMP-dependent protein kinase 1 (Homo sapiens) (UniProt Q13976); conditions: Compound concentration 1000.0 nM
[29] = biological target: Ribosomal protein S6 kinase alpha-4 (Homo sapiens) (UniProt O75676); conditions: Compound concentration 1000.0 nM
[30] = biological target: Ribosomal protein S6 kinase alpha-1 (Homo sapiens) (UniProt Q15418); conditions: Compound concentration 1000.0 nM
[31] = biological target: Serine/threonine-protein kinase 16 (Homo sapiens) (UniProt O75716); conditions: Compound concentration 1000.0 nM
Chain of Serine/threonine-protein kinase 16 (Homo sapiens) (O75716 whole entry): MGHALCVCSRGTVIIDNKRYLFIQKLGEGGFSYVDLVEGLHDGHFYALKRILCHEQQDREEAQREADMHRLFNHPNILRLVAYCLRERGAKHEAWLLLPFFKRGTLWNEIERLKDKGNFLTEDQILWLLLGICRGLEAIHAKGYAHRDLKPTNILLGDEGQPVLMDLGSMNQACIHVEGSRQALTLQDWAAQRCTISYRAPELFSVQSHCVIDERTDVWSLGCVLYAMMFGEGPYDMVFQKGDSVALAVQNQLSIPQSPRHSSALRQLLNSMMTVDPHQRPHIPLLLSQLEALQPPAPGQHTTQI

[32] = biological target: Serine/threonine-protein kinase TAO3 (Homo sapiens) (UniProt Q9H2K8); conditions: Compound concentration 1000.0 nM
[33] = biological target: Tyrosine-protein kinase receptor Tie-1 (Homo sapiens) (UniProt P35590); conditions: Compound concentration 1000.0 nM
[34] = biological target: Serine/threonine-protein kinase WNK1 (Homo sapiens) (UniProt Q9H4A3); conditions: Compound concentration 1000.0 nM
[35] = biological target: 5-hydroxytryptamine receptor 1B (Homo sapiens) (UniProt P28222); conditions: Compound concentration 10.0 uM
[36] = biological target: 5-hydroxytryptamine receptor 2B (Homo sapiens, UniProt P41595); conditions: Compound concentration 10.0 uM
[37] = biological target: T1, 5-hydroxytryptamine receptor 3A (Homo sapiens) (UniProt P46098); conditions: Compound concentration 10.0 uM
T1 sequence (whole entry): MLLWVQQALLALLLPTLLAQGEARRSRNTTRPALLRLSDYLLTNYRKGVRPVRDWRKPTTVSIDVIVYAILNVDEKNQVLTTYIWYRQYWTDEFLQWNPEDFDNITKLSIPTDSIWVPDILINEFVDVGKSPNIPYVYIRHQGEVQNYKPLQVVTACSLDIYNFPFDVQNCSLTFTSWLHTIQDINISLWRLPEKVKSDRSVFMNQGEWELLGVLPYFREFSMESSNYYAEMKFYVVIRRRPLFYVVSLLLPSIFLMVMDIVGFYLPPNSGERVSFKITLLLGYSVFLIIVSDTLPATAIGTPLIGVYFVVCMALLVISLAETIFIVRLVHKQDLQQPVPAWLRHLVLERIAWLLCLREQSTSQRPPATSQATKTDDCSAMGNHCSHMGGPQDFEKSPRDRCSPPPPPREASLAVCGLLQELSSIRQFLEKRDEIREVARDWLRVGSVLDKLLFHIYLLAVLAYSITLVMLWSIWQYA

[38] = biological target: Sodium-dependent dopamine transporter (Homo sapiens) (UniProt Q01959); conditions: Compound concentration 10.0 uM
[39] = biological target: Alpha-2B adrenergic receptor (Homo sapiens) (UniProt P18089); conditions: Compound concentration 10.0 uM

Chain of Calcium/calmodulin-dependent protein kinase kinase 1 (Homo sapiens) (Q8N5S9 whole entry, looked up): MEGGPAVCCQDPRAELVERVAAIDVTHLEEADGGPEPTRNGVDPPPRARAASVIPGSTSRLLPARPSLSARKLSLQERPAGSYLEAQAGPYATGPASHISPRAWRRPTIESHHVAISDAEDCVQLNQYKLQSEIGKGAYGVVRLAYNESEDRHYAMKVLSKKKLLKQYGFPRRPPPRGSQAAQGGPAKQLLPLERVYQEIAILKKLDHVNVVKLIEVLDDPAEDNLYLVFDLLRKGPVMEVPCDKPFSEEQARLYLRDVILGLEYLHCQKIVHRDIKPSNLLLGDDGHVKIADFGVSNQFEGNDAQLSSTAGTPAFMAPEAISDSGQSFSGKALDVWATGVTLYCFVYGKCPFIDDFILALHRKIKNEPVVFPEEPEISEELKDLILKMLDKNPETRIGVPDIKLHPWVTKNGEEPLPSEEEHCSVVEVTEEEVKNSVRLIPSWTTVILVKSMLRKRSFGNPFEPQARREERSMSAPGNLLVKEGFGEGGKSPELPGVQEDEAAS

| SMILES | residual activity [1] | residual activity [2] | residual activity [3] | residual activity [4] | residual activity [5] | residual activity [6] | residual activity [7] | residual activity [8] | residual activity [9] | residual activity [10] | residual activity [11] | residual activity [12] | residual activity [13] | residual activity [14] | residual activity [15] | residual activity [16] | residual activity [17] | residual activity [18] | residual activity [19] | residual activity [20] | also measured |
| --- | --- | --- | --- | --- | --- | --- | --- | --- | --- | --- | --- | --- | --- | --- | --- | --- | --- | --- | --- | --- | --- |
| CCCCN(CCCC)C(=O)CN1C[C@@H](c2cc(OC)c3c(c2)OCO3)[C@H](C(=O)O)[C@H]1CC(C)(C)CCC [A-545] | 96.4% | 85.1% | 100% | 100% | 88.1% | 87.8% | 90.5% | 99.1% | 100% | 99.1% | 94.4% | 96.3% | 95.3% | 83.2% | 92.4% | 100% | 100% | 100% | 100% | 100% | residual activity [21]: 99%; residual activity [22]: 95.9%; residual activity [23]: 80.3%; residual activity [24]: 81.5%; residual activity [25]: 84.1%; residual activity [26]: 0%; residual activity [27]: 100%; residual activity [28]: 100%; residual activity [29]: 97.2%; residual activity [30]: 91.3%; residual activity [31]: 100%; residual activity [32]: 67.9%; residual activity [33]: 94.7%; residual activity [34]: 96.8%; inhibition [35]: -2.98%; inhibition [36]: 76%; inhibition [37]: 2.23%; inhibition [38]: 23%; inhibition [39]: 50% |
| CCCCN(CCCC)C(=O)CN1C[C@H](c2cc(OC)c3c(c2)OCO3)[C@@H](C(=O)O)[C@@H]1CC(C)(C)CCC [ABT-546] | 96.4% | 97.4% | 100% | 86.4% | 100% | 100% | 100% | 98.1% | 100% | 76.6% | 100% | 73.1% | 100% | 100% | 100% | 100% | 100% | 100% | 99.1% | 57.4% | residual activity [21]: 100%; residual activity [22]: 72.2%; residual activity [23]: 100%; residual activity [24]: 100%; residual activity [25]: 100%; residual activity [26]: 100%; residual activity [27]: 79.4%; residual activity [28]: 100%; residual activity [29]: 75%; residual activity [30]: 97.7%; residual activity [31]: 100%; residual activity [32]: 63.2%; residual activity [33]: 100%; residual activity [34]: 72.9%; inhibition [35]: 2.64%; inhibition [36]: -9.89%; inhibition [37]: 14.7%; inhibition [38]: -0.591%; inhibition [39]: 9.73% |
